# In patent US20250197393A1, “INTEGRIN INHIBITOR AND USES THEREOF” (Pliant Therapeutics, Inc., priority 2023, published 2025):
# Legend:
# Type in all cases: physicochemical
# [1] = Bulk stability of solid under temperature/humidity stress (HPLC, appearance, XRPD); details: 40° C./75% RH in an open container, 4 weeks; listed as L-tartaric acid cocrystal Pattern A
# [2] = Solubility at 37° C. in aqueous and biorelevant media; details: for solubility at 2 h / solubility at 24 h: 37 °C, thermodynamic from solid; for solubility at 2 h / solubility at 24 h / Solubility (mg/ mL) 2 h / Solubility (mg/ mL) 24 h: target 250 mg/mL (in free form); for pH of supernatant at 24 h / Solubility (mg/ mL) 2 h / Solubility (mg/ mL) 24 h: listed as L-Tartaric acid cocrystal Pattern A, hydrate
# Experimental: To prepare the samples of (S)-4-((2-methoxyethyl)(4-(5,6,7,8-tetrahydro-1,8-naphthyridin-2-yl)butyl)amino)-2-(quinazolin-4-ylamino)butanoic acid L-tartaric acid cocrystal Pattern A, 80.6 mg was weighed into a 2 mL glass vial. Next, 0.18 mL of solubility medium was added. The salt amount used is equivalent to 45 mg of the amorphous free form. Obtained suspensions/solutions were stirred at 37° C. at 400 rpm and sampled at 2 h and at 24 h. The samples were centrifuged at 37° C. at 14,000 rpm for 5 min. Supernatants were analyzed by HPLC and pH meter for solubility and pH value, respectively. […]
# [3] = Water activity experiments in MeOH/water (relative stability of hydrate Pattern A and hydrate Pattern B); details: for water activity (a.w.) at which the pattern was obtained: methanol/water
# Experimental: The relative stability of the hydrate Pattern A and the hydrate Pattern B was investigated using water activity experiments in MeOH/water systems. About 5 mg of (S)-4-((2-methoxyethyl)(4-(5,6,7,8-tetrahydro-1,8-naphthyridin-2-yl)butyl)amino)-2-(quinazolin-4-ylamino)butanoic acid L-tartaric acid cocrystal Pattern A and 5 mg of (S)-4-((2-methoxyethyl)(4-(5,6,7,8-tetrahydro-1,8-naphthyridin-2-yl)butyl)amino)-2-(quinazolin-4-ylamino)butanoic acid L-tartaric acid cocrystal Pattern B were added to 0.1-0.5 mL saturated solutions of the methanol/water system. Obtained suspensions were stirred at 5° C., 25° C. and 50° C. for up to 21 days, respectively. Solid parts (wet cakes) were isolated by centrifugation filtration and investigated by XRPD.
# [4] = FaSSGF (fasted state simulated gastric fluid), pH 1.6, fassgf or other biorelevant, FaSSGF, pH 1.6, 37° C.
# [5] = FeSSIF-v1 (fed state simulated intestinal fluid), pH 5, fessif, FeSSIF-v1, pH 5.0, 37° C.
# [6] = pH 1.2 HCl buffer, pH 1.2, simulated gastric fluid
# [7] = pH 4.5 acetate buffer (50 mM), pH 4.5, aqueous buffer
# [8] = pH 6.8 phosphate buffer (50 mM), 37° C.
smiles,measurement,setting,value
"COCCN(CCCCc1ccc2c(n1)NCCC2)CC[C@H](Nc1ncnc2ccccc12)C(=O)O [Pattern A, (S)-4-((2-methoxyethyl)(4-(5,6,7,8-tetrahydro-1,8-naphthyridin-2-yl)butyl)amino)-2-(quinazolin-4-ylamino)butanoic acid]",purity decrease,[1],2.1%
same,solubility at 2 h,[2]; [4],206 mg/mL
same,solubility at 24 h,[2]; [4],224 mg/mL
same,pH of supernatant at 24 h,"[2]; FaSSGF, pH 1.6, 37° C.",(1.6)
same,Solubility (mg/ mL) 2 h,"[2]; FaSSIF-v1, pH 6.5, 37° C.",84.1 mg/mL
same,Solubility (mg/ mL) 24 h,"[2]; FaSSIF-v1, pH 6.5, 37° C.",63.2 mg/mL
same,pH of supernatant at 24 h,"[2]; FaSSIF-v1, pH 6.5, 37° C.",(6.6)
same,solubility at 2 h,[2]; [5],203 mg/mL
same,solubility at 24 h,[2]; [5],217 mg/mL
same,pH of supernatant at 24 h,"[2]; FeSSIF-v1, pH 5.0, 37° C.",(5.0)
same,pH of supernatant at 24 h,"[2]; Water, 37° C.",(3.2)
same,pH of supernatant at 24 h,"[2]; pH 1.2 HCl buffer, 37° C.",(1.4)
same,solubility at 2 h,[2]; [6],215 mg/mL
same,solubility at 24 h,[2]; [6],222 mg/mL
same,pH of supernatant at 24 h,"[2]; pH 4.5 acetate buffer (50 mM), 37° C.",(4.4)
same,solubility at 2 h,[2]; [7],214 mg/mL
same,solubility at 24 h,[2]; [7],220 mg/mL
same,Solubility (mg/ mL) 2 h,[2]; [8],28.4 mg/mL
same,Solubility (mg/ mL) 24 h,[2]; [8],56.4 mg/mL
same,pH of supernatant at 24 h,[2]; [8],(6.8)
same,solubility at 2 h,[2]; water,207 mg/mL
same,solubility at 24 h,[2]; water,218 mg/mL
same,thermodynamic stability based on water activity experiments,"[3]; 0, 0.2, 0.4, 0.6, 0.8 and 1.0 water activity",thermodynamically stable
same,water activity (a.w.) at which the pattern was obtained,[3]; 5° C.,≤ 0.8
same,water activity (a.w.) at which the pattern was obtained,[3]; 25° C.,≤ 0.8
same,water activity (a.w.) at which the pattern was obtained,[3]; 50° C.,≤ 1.0
